Source: ChEMBL document CHEMBL1138861, “Design, synthesis, and biological evaluation of phenylamino-substituted 6,11-dihydro-dibenzo[b,e]oxepin-11-ones and dibenzo[a,d]cycloheptan-5-ones: novel p38 MAP kinase inhibitors” (J Med Chem, 2006)
pIC50: −log10 of the molar value.

Key:
[1] = biological target: Mitogen-activated protein kinase 14 (Homo sapiens, UniProt Q16539)
CYP2C19 = CYP2C19 (Homo sapiens, UniProt P33261); assay: Inhibition of CYP2C19 at 10 uM; format: ADME
CYP2D6 = CYP2D6 (Homo sapiens, UniProt P10635); assay: Inhibition of CYP2D6 at 10 uM; format: ADME
Sequence of CYP2D6 (P10635 whole entry): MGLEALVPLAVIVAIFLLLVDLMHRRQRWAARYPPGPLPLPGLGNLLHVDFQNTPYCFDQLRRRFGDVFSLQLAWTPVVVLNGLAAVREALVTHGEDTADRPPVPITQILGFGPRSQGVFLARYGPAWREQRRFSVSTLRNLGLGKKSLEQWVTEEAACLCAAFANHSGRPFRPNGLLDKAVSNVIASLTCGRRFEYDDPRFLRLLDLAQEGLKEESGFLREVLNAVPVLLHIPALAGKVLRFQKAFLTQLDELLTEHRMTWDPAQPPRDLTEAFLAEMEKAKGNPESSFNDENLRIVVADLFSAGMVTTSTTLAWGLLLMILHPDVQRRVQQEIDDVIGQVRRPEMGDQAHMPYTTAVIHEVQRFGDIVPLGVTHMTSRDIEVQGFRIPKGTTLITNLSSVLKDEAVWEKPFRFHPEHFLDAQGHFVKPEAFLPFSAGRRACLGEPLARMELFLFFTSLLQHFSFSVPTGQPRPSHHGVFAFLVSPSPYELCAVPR

CYP3A4 = CYP3A4 (Homo sapiens, UniProt P08684); assay: Inhibition of CYP3A4 at 10 uM; format: ADME
Sequence of CYP3A4 (P08684 whole entry): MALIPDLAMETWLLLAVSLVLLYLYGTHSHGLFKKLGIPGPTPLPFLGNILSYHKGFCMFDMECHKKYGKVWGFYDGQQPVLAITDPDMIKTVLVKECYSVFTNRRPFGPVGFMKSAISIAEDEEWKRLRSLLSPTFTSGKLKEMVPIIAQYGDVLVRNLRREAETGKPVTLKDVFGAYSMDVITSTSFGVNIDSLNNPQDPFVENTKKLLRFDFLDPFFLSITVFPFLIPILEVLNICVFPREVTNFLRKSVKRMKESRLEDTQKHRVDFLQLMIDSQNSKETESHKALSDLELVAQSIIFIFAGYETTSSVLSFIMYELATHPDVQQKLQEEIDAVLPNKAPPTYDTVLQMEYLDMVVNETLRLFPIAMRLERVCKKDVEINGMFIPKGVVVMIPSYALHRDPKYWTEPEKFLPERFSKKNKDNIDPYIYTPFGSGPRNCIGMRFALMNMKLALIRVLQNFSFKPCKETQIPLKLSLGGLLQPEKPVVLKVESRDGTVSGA

Sequence of Mitogen-activated protein kinase 14 (Q16539 whole entry): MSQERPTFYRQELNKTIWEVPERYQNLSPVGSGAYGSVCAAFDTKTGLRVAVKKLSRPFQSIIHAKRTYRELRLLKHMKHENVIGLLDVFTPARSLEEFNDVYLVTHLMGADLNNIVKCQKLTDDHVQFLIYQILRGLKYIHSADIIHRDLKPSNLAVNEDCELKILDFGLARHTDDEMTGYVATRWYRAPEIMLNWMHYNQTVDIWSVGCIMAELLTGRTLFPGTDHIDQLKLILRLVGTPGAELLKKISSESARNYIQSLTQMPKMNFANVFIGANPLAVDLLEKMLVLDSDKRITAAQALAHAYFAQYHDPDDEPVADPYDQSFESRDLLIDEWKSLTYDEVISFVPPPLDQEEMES
Sequence of CYP2C19 (P33261 whole entry): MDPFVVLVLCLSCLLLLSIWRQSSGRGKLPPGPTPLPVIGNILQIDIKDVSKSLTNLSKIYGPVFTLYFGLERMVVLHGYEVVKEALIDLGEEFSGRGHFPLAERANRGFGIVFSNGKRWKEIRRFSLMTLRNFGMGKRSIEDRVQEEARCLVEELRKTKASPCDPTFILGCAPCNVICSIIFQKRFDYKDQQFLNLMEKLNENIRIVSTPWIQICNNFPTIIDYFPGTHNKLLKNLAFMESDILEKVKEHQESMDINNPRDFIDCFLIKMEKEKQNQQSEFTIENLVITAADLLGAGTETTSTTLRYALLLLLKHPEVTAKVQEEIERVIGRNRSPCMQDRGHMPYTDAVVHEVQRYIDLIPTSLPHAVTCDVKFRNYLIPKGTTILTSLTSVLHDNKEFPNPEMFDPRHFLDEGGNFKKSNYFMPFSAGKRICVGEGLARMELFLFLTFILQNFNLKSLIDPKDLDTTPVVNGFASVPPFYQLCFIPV

O=C1c2ccccc2COc2cc(Nc3ccc(Cl)cc3Cl)ccc21
pIC50 [1]: 5.52

Nc1ccc(Nc2ccc3c(c2)OCc2ccccc2C3=O)c(N)c1
pIC50 [1]: < 5.30

Nc1ccccc1Nc1ccc2c(c1)SCc1ccccc1C2=O
pIC50 [1]: 6.71

Nc1ccc(Nc2ccc3c(c2)OCc2ccccc2C3=O)c(F)c1
pIC50 [1]: 5.88

Nc1cc(F)ccc1Nc1ccc2c(c1)OCc1ccccc1C2=O
pIC50 [1]: 7.42

Nc1ccc(Nc2ccc3c(c2)CCc2ccccc2C3=O)cc1
pIC50 [1]: 5.93

Cc1ccccc1C(=O)c1ccc(Nc2ccccc2)cc1Cl
pIC50 [1]: 6.72

Nc1ccccc1Nc1ccc2c(=O)c3ccccc3ccc2c1
pIC50 [1]: 5.98

Nc1ccccc1Nc1ccc2c(c1)CCc1ccccc1C2=O
inhibition at 10 µM (CYP2C19): 53% | inhibition at 10 µM (CYP2D6): 42% | inhibition at 10 µM (CYP3A4): 70%

O=C1c2ccccc2COc2cc(Nc3ccc(Br)cc3Br)ccc21
pIC50 [1]: < 5.30

Nc1ccc(Nc2ccc3c(c2)OCc2ccccc2C3=O)cc1
pIC50 [1]: < 5.30

O=C1c2ccccc2COc2cc(Nc3ccc(F)cc3F)ccc21
pIC50 [1]: 6.62

C[S+]([O-])c1ccc(-c2nc(-c3ccncc3)c(-c3ccc(F)cc3)[nH]2)cc1 (centres undefined) [SB-203580]
inhibition at 10 µM (CYP2C19): 92% | inhibition at 10 µM (CYP2D6): 73% | inhibition at 10 µM (CYP3A4): 77%

Nc1ccccc1Nc1ccc2c(c1)COc1ccccc1C2=O
pIC50 [1]: 5.51

Nc1cccc(Nc2ccc3c(c2)OCc2ccccc2C3=O)c1
pIC50 [1]: 5.91
